Results on twelve compounds are retold here after ChEMBL document CHEMBL2311477, “Alpha-heteroatom derivatized analogues of 3-(acetylhydroxyamino)propyl phosphonic acid (FR900098) as antimalarials” (J Med Chem, 2013).

Usually IC50 stands for the concentration needed to halve the response being measured. In general, inhibition refers to how much of the control response was suppressed.

For assay [1], the system named is Plasmodium falciparum. Briefly: Antimalarial activity against chloroquine-sensitive Plasmodium falciparum 3D7 assessed as parasite growth inhibition. The assay is classed as functional, organism-based.
Assay [2] concerns Plasmodium falciparum. Put plainly: Antimalarial activity against Plasmodium falciparum K1 infected in human erythrocytes assessed as parasite growth inhibition. The assay is classed as functional, organism-based.
A further assay deals with Escherichia coli. Briefly: Inhibition of Escherichia coli DXR assessed as reduction of NADPH in NADP+ at 100 nM by spectrophotometric analysis.
Assay [3] can be described thus: Inhibition of Escherichia coli DXR assessed as reduction of NADPH in NADP+ by spectrophotometric analysis.
Assay [4] has as its system Plasmodium falciparum. Put plainly: Antimalarial activity against Plasmodium falciparum 3D7 assessed as parasite growth inhibition. The assay is classed as functional, organism-based.

Each structure is given as a SMILES string.

As to `CC(=O)N(O)Cc1ccccc1P(OCOC(=O)C(C)(C)C)OCOC(=O)C(C)(C)C`, in the assay on Plasmodium falciparum [1], the IC50 worked out at 50 µM.

For `CC(=O)N(O)CCC(NC(=O)c1ccccc1)P(=O)(O)O` (racemic), the IC50 in the assay on Plasmodium falciparum [2] was 49 µM. In addition, the inhibition with Escherichia coli was 1.42%.

Turning to `CC(=O)N(O)CCC(N=[N+]=[N-])P(=O)(O)O` (racemic), the values for the IC50 (in the assay on Plasmodium falciparum [2]; in assay [3] (read-out: IC50)) were 1.98 µM and 0.0746 µM, respectively.

Regarding `CC(=O)N(O)CCC(O)P(=O)(O)O` (racemic), the values for the IC50 (in the assay on Plasmodium falciparum [2]; in assay [3] (read-out: IC50)) were 1.82 µM and 0.0522 µM, respectively.

In the case of `COC(CCN(O)C(C)=O)P(=O)(O)O` (racemic), in the assay on Plasmodium falciparum [2], the half-inhibitory concentration (IC50) was 4 µM. Moreover, the inhibition with Escherichia coli came out at 4.14%.

As to `CC(=O)N(O)CCC(Oc1ccccc1)P(=O)(O)O` (racemic), the IC50 in the assay with Plasmodium falciparum [2] was 13 µM; in assay [3] it was “Not Active”.

`CC(=O)N(O)CCC(n1ccnn1)P(=O)(O)O` (racemic): the IC50 in the assay on Plasmodium falciparum [2] was 8.96 µM. Further, the inhibition in the assay on Escherichia coli is 3.32%.

For `CC(=O)N(O)CCC(n1cc(C(C)(C)C)nn1)P(=O)(O)O` (racemic), the results for the IC50 (in the assay on Plasmodium falciparum [2]; in assay [3] (read-out: IC50)) were 7.76 µM and 0.207 µM, respectively.

With `CC(=O)N(O)CCC(n1cc(-c2ccccc2)nn1)P(=O)(O)O` (racemic), the IC50 stood at 2.75 µM in the assay on Plasmodium falciparum [2] and 1.13 µM in assay [3] (read-out: IC50).

In the case of `CC(=O)N(O)CCC(NC(=O)Nc1ccccc1)P(=O)(O)O` (racemic), in the assay with Plasmodium falciparum [2], the IC50 was over 64 µM. The inhibition with Escherichia coli came to 1.3%.

Take `O=CN(O)CCCP(=O)(O)O` [FOSMIDOMYCIN]: the IC50 with Plasmodium falciparum [4] is 1 µM.

Regarding `CC(=O)N(O)CCCP(=O)(O)O` [FR-900098], in assay [3] (read-out: IC50), the IC50 is 0.0151 µM.
